Laboratory results taken from US8822383B2, “Germination-stimulant carbamate derivatives and process for preparation thereof” (National University Corporation KOBE UNIVERSITY, priority 2010, dated 2014).

What was measured:
[1] = system: Striga (Striga hermonthica) seeds; experiment: Test for Germination Stimulation Activity on Striga; format: in vivo; settings: conditioned Striga hermonthica seeds, 20 μl of 10 μM solution, 30° C., counted 24 hours later; no compound: 0%
Method: (§1) First, 10 μmol of each test compound was weighed and dissolved in 2 ml of acetone. Each solution was diluted with distilled water to obtain a 10 μM solution. Next, a bottom of a petri dish was covered with a filter paper, and conditioned seeds of Striga (Striga hermonthica) were placed on the filter paper, and then 20 μl of each diluted solution of test compound was applied to the seeds. For maintaining the humidity, a wet filter paper was prepared as long as water droplets were not dripped from the filter paper, and folded into four, and then placed onto the center of the petri dish. The petri dish was sealed with Parafilm®, and then covered with aluminum foil, and then incubated at 30° C. Twenty four (24) hours later, the number of germinated seeds was counted, and then a germination rate (%) was calculated by using the following formula: Germination rate(%)=(the number of germinated seeds/the total number of seeds)×100 The test compounds and the germination rates are shown in Tables 1 and 2. When no test compound was used in this test, the germination rate was 0%.

[2] = system: Orobanche (Orobanche minor) seeds; experiment: Test for Germination Stimulation Activity on Orobanche; format: in vivo; settings: conditioned Orobanche minor seeds, 20 μl of 10 μM solution, 30° C., counted 4 days after; no compound: 0%
Method: as §1, with “of Orobanche (Orobanche minor)” for “of Striga (Striga hermonthica)”, “C. Four (4) days after,” for “C. Twenty four (24) hours later,”, “Tables 3” for “Tables 1”, “and 4.” for “and 2.”

Structure (SMILES) | Germination rate (%) [1] [%] | Germination rate (%) [2] [%]
CC1=CC(OC(=O)N(C)CCc2ccccc2)OC1=O (stereo not shown) [Compound No. 6, 4-methyl-5-oxo-2,5-dihydrofuran-2-yl 2-phenethyl(methyl)carbamate] | 28.0 | 30.4
CC1=CC(SC(=O)N(C)c2ccccc2)OC1=O (stereo not shown) [Compound No. 8, 4-methyl-5-oxo-2,5-dihydrofuran-2-yl methyl(phenyl)thiolcarbamate] | 12.0 | 5.4
CC1=CC(OC(=O)Nc2ccccc2)OC1=O (stereo not shown) [Compound No. 1, 4-methyl-5-oxo-2,5-dihydrofuran-2-yl phenylcarbamate] | 2.6 | 38.8
CC1=CC(OC(=O)N(C)c2ccccc2)OC1=O (stereo not shown) [Compound No. 4, 4-methyl-5-oxo-2,5-dihydrofuran-2-yl methyl(phenyl)carbamate] | 53.5 | 66.3
CC1=CC(OC(=O)N(C)Cc2ccccc2)OC1=O (stereo not shown) [Compound No. 5, 4-methyl-5-oxo-2,5-dihydrofuran-2-yl benzyl(methyl)carbamate] | 48.4 | 75.2
CC1=CC(OC(=O)NCCc2ccc3c(c2)OCO3)OC1=O (stereo not shown) [Compound No. 11, 4-methyl-5-oxo-2,5-dihydrofuran-2-yl 2-(3,4-methylenedioxyphenyl)ethylcarbamate] | 37.0 | 47.0
CC1=CC(SC(=S)N(C)c2ccccc2)OC1=O (stereo not shown) [Compound No. 7, 4-methyl-5-oxo-2,5-dihydrofuran-2-yl methyl(phenyl)dithiocarbamate] | 32.6 | 15.3
CC1=CC(OC(=O)NCCc2cccc(C)c2C)OC1=O (stereo not shown) [Compound No. 9, 4-methyl-5-oxo-2,5-dihydrofuran-2-yl 2-(2,3-dimethylphenyl)ethylcarbamate] | 32.0 | 54.0
CC1=CC(OC(=O)NCc2ccccc2)OC1=O (stereo not shown) [Compound No. 2, 4-methyl-5-oxo-2,5-dihydrofuran-2-yl benzylcarbamate] | 38.1 | 61.1
CC1=CC(OC(=O)NCCc2ccccc2)OC1=O (stereo not shown) [Compound No. 3, 4-methyl-5-oxo-2,5-dihydrofuran-2-yl phenethylcarbamate] | 54.0 | 66.9
CC1=CC(OC(=O)NCCc2ccc(C)c(C)c2)OC1=O (stereo not shown) [Compound No. 10, 4-methyl-5-oxo-2,5-dihydrofuran-2-yl 2-(3,4-dimethylphenyl)ethylcarbamate] | 43.0 | 48.0
